Here are results for one molecule from ChEMBL document CHEMBL4364260, “Discovery of Ziresovir as a Potent, Selective, and Orally Bioavailable Respiratory Syncytial Virus Fusion Protein Inhibitor” (J Med Chem, 2019).

Structures are written as SMILES.

A short description of data set [1]: AUC (0 to 24 hrs) in CD-1 mouse lung at 10 mg/kg/day, po administered via gavage and measured up to 24 hrs by LC/MS/MS analysis. Type of data set: ADME, organism-based. On the set-up: dose 10 mg/kg/day, time < 24 hr, route oral.
The nature of data set [2]: Cmax in CD-1 mouse lung at 10 mg/kg/day, po administered via gavage and measured up to 24 hrs by LC/MS/MS analysis. Format: ADME, organism-based. On the set-up: dose 10 mg/kg/day, route oral.

Consider `Cc1ccc2nc(N3CCS(=O)(=O)c4ccccc4C3)nc(NCC3(N)COC3)c2c1` [ZIRESOVIR], for which the AUC (usually the area under the concentration-time curve, a measure of exposure) at 24 h in data set [1] is 72400 ng·h/mL. For the same molecule, the Cmax – broadly, the highest concentration seen after dosing – in data set [2] worked out at 22700 ng/mL.
